Assay results from patent publication US8188326B2, “Process for producing adamantane” (Mitsubishi Gas Chemical Company, Inc., priority 2008, dated 2012).

Format: physicochemical
Protocol: FIG. 1 is a graph showing the measurement results of the solubility of adamantane (hereinafter, occasionally referred to simply as “ADM”) in TCD (mol %=ADM mol/(exo-TCD+endo-TCD+ADM)mol×100).
Specifically, at 80° C., with respect to the purity of 80% of mixed TCD containing exo-TCD of 99% and endo-TCD of 1% (hereinafter, referred to simply as “exo-TCD (99)”), the total ADM solubility is 20 mol %. […] It is preferable to control the yield (generation amount) of adamantane to be equal to or less than such a level of ADM solubility.

total ADM solubility of adamantane with respect to TCD: 12.3 mol %
Structure (SMILES): C1C2CC3CC1CC(C2)C3 [adamantane, tricyclo[3.3.1.1^3,7]decane]
